Reference: patent publication US11840531B2, “CDK8/19 inhibitors” (JOINT STOCK COMPANY “BIOCAD”, priority 2018, dated 2023)

Experiments:
[1] = Permeability through Caco-2 cell monolayer; type: in vitro ADME; settings: human; for Papp A→B at 2 h, 10 μM: Caco-2, A→B, pH 6.5/7.4, 2 hour incubation; for efflux ratio at 2 h, 10 μM: Caco-2, Papp B-A/Papp A-B
Protocol: Estimation of permeability through Caco-2 cell monolayer enables assessment of the ability of the substances to penetrate through biological membranes by means of both active and passive transport.
Intestinal epithelial cells Caco-2 were grown on filter inserts (pore size 0.4 jam, BD Falcon with High Density) for 21 days; monolayer integrity was then checked using Lucifer Yellow (Sigma-Aldrich, USA) according to the standard protocol. In A→B transfer (“intestinal lumen”-“blood stream” transfer), solutions of the test substances in buffer, pH 6.5 (HBSS, 10 mM HEPES, 15 mM glucose) at a concentration of 10 μM were added to the upper chamber; whereas the lower chamber was filled with buffer, pH 7.4 (HBSS, 10 mM HEPES, 15 mM Glucose, 1% BSA). In B→A transfer (“blood stream”-“intestinal lumen” transfer), the upper chamber was filled with buffer, pH 6.5, whereas the solutions of the test substances in buffer, pH 7.4, at a concentration of 10 μM were added to the lower chamber. A highly permeable substance propranolol was used as a control.
After 2 hour incubation at 37° C. under an atmosphere containing 5% CO2, the amounts of the test substances in the upper and lower chambers were measured by HPLC using an Agilent1200 HPLC system (Agilent, USA), proteins were preliminarily precipitated with acetonitrile. Chromatographic analysis was performed in a gradient elution regime with a flow rate of 1 mL/min. The peak areas corresponding to the compounds were detected on chromatograms. Based on the peak areas of a compound in the calibration standards, concentration of the compound in the initial solution and in the samples from upper chamber wells and lower chamber wells was measured.
Cellular permeability coefficient Papp was calculated by the formula: Papp=(Ca(t)*Va)/(Cd(0)*t*Area), where Papp is the effective permeability constant, m/s V is the volume of solution (0.8 ml in A→B test, 0.2 ml in B→A test), ml Area is the membrane surface area (0.33 cm^2), cm^2 t is the time of incubation (7200 sec), sec Cd(0) is the initial solution concentration, μM Ca(t) is the concentration of the solution after 2 hours (the concentration in the sample from the well of the lower chamber in A→B test; the concentration in the sample from the well of the top chamber in B→A test), μM
The value was calculated by the following formula: efflux=Papp B-A/Papp A-B, where Pape A-B-direct A→B test permeability value Papp B-A-reverse B→A test permeability value

[2] = Stability of the compounds in human blood plasma; type: in vitro ADME; settings: pooled human blood plasma, 10 μM, 4 hours at 37° C.
Protocol: To assess the blood plasma stability of the compounds, we used pooled human blood plasma taken from ten healthy donors. The initial candidate solution (10 mM in DMSO) was diluted with pooled blood plasma to a concentration of 10 μm (test solution). The test solution was incubated in a dry block thermostat for 4 hours at 37° C. HPLC with Agilent 1200 liquid chromatography system (Agilent, USA) was employed to determine peak areas of the compounds in test samples, said peak areas corresponding to the initial test time (prior to incubation) and the final test time (after incubation in a dry block thermostat for 4 hours at 37° C.), proteins were preliminarily precipitated with acetonitrile. Chromatographic analysis was performed in a gradient elution regime with a flow rate of 1 mL/min Substance amount in % in a sample after thermostatting was determined.
The stability of the compounds was estimated. The compounds described herein show at least 90% chemical stability, i.e. they are chemically stable in human blood plasma (Table 2).

MV4-11 cells = test: Antiproliferative activity, MV4-11 cells (AlamarBlue); type: cell-based; settings: Homo sapiens, 120 h incubation, read-out: MV-4-11 IC50
Protocol: Antiproliferative activity of CDK8 inhibitors according to the present invention was measured in a cell-based test on continuous cell cultures MV4-11 (biphenotypic myelomonocytic leukemia, ATCC® CRL-9591™), KG-1 (acute myeloid leukemia, ATCC® CCL-246™) using a vital stain AlamarBlue (ThermoFisher, #DAL1100). The cells were grown in RPMI-1640 (PanEco, #C330p) medium with addition of 10% FBS (Gibco, #16140-071); washed and resuspended in culture medium with 10% FBS (Gibco, #16140-071) in 96-well culture plates (Corning, #3599) with ≈10×10^3 cells in […] of medium per well. The compounds in question were dissolved in DMSO and diluted with a medium with 10% FBS (Gibco, #16140-071) to a final concentration ranging from 0 to 100 μM. […] of diluted compounds were then added to each well (final DMSO concentration was less than 1%) and incubated under 5% CO2 atmosphere at 37° C. for 120 h. After incubating, 15 μL/well of AlamarBlue (ThermoFisher, #DAL1100) reagent was added, contents of plates were mixed in an orbital shaker (Biosan, Latvia) and further incubated for 3-5 h at 37° C. under 5% CO2 atmosphere. Number of living cells was estimated using a microplate spectrophotometer (Tecan Infinite M200Pro, Switzerland) measuring fluorescent signal at the excitation wavelength (λEx) of 540 nm and emission wavelength (λEm) of 590 nm.
IC50 values were calculated using Magellan 7.2 software (Tecan, Switzerland) approximating experimental points by four-parameter logistic model with the optimization by Levenberg-Marquardt (Table 6).

COCCn1cc(-c2ccc(-c3cnc(N)c4ncc(C(=O)NCC5CC5)cc34)cc2)cn1 [Compound 3.45, 8-amino-N-(cyclopropylmethyl)-5-(4-(1-(2-methoxyethyl)-1H-pyrazole-4-yl)phenyl)-1,7-naphthyridine-3-carboxamide]
Papp A→B at 2 h, 10 μM [1]: 345 nm/s
efflux ratio at 2 h, 10 μM [1]: 0.37
Chemical stability in human blood plasma 4 h, % [2]: 91.2%
IC50 (MV4-11 cells): 3.4 nM

COCCn1cc(-c2ccc(-c3cnc(N)c4ncc(C(=O)NC5CC5)cc34)cc2)cn1 [Compound 3.48]
Papp A→B at 2 h, 10 μM [1]: 362 nm/s
efflux ratio at 2 h, 10 μM [1]: 0.64
Chemical stability in human blood plasma 4 h, % [2]: 98.4%
IC50 (MV4-11 cells): 3.9 nM

CN(C)C(=O)Cn1cc(-c2ccc(-c3cnc(N)c4ncc(C(=O)N5CCC5)cc34)cc2)cn1 [Compound 3.52, 2-(4-(4-(8-amino-3-(azetidine-1-carbonyl)-1,7-naphthyridine-5-yl)phenyl)-1H-pyrazole-1-yl)-N,N-dimethylacetamide]
Papp A→B at 2 h, 10 μM [1]: 187 nm/s
efflux ratio at 2 h, 10 μM [1]: 1.66
Chemical stability in human blood plasma 4 h, % [2]: 100.0%
IC50 (MV4-11 cells): 0.9 nM
